Experimental data from PMC4774911, “Biochemical Screening of Five Protein Kinases from Plasmodium falciparum against 14,000 Cell-Active Compounds” (PLoS ONE, 2016).
Several values for one entry are separate records, joined by “and”; a condition that tells them apart may be missing. Equal entries are not always repeated.

What was measured:
Experiment in all cases: biochemical
MAPK8 = MAPK8 (Homo sapiens, UniProt P45983)
GAK = biological target: T1, GAK (Homo sapiens, UniProt O14976)
T1 sequence (O14976 1-1311): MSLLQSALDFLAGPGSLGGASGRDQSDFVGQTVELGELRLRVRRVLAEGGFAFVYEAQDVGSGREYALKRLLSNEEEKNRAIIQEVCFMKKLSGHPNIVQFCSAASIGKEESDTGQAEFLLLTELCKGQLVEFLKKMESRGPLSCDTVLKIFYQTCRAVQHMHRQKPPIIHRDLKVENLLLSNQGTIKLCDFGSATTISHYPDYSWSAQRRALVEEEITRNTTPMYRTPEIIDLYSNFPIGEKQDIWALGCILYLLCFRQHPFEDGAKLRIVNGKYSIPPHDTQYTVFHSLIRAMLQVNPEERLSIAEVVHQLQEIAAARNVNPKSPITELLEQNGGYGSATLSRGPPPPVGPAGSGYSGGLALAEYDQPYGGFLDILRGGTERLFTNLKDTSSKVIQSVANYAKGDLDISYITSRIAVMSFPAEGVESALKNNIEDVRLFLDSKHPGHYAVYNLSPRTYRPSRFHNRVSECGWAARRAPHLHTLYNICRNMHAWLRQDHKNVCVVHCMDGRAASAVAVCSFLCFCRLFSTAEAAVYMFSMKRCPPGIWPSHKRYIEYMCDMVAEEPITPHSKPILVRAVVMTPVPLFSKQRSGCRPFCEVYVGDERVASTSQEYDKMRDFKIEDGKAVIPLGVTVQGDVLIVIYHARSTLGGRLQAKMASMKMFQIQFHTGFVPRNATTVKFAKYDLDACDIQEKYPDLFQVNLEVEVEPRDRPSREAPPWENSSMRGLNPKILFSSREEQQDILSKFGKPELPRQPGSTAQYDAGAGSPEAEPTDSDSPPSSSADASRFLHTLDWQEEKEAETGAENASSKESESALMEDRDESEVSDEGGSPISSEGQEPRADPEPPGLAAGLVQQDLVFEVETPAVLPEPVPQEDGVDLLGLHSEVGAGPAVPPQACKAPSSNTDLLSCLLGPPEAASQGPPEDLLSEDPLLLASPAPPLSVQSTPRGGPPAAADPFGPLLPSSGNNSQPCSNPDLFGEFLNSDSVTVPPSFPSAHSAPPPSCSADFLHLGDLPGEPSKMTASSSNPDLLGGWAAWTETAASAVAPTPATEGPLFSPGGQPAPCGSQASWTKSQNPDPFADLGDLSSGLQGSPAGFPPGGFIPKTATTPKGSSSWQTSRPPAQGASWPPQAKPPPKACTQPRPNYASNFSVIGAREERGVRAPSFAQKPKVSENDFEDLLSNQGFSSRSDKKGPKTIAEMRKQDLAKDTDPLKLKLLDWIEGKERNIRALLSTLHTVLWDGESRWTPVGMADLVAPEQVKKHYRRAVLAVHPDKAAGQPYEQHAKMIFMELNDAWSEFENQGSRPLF

MASTL = biological target: T2, MASTL (Homo sapiens, UniProt Q96GX5)
T2 sequence (Q96GX5 1-879): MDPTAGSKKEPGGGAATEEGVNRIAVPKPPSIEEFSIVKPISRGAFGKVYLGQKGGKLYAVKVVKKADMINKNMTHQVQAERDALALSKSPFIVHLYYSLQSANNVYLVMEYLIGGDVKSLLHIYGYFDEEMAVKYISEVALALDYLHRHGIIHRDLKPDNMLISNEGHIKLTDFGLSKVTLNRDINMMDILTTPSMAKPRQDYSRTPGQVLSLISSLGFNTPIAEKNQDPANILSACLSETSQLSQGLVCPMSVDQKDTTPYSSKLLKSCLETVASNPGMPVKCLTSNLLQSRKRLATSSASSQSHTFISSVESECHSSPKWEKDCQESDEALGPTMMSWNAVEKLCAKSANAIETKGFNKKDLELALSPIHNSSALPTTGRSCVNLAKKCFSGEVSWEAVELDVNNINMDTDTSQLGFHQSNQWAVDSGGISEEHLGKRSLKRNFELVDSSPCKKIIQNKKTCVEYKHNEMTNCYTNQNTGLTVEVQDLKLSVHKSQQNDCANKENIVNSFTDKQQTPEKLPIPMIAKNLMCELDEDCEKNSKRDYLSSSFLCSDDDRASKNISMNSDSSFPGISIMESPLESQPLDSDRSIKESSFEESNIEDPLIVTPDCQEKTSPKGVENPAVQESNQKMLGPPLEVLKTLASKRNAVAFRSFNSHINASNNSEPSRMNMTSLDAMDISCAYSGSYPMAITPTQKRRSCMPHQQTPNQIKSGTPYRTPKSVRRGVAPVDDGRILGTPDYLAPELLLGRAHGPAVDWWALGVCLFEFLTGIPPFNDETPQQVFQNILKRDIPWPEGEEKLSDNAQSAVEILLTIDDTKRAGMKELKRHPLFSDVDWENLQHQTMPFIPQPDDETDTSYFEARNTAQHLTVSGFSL

DDR1 = DDR1 (Homo sapiens, UniProt Q08345)
Chain of DDR1 (Q08345 whole entry): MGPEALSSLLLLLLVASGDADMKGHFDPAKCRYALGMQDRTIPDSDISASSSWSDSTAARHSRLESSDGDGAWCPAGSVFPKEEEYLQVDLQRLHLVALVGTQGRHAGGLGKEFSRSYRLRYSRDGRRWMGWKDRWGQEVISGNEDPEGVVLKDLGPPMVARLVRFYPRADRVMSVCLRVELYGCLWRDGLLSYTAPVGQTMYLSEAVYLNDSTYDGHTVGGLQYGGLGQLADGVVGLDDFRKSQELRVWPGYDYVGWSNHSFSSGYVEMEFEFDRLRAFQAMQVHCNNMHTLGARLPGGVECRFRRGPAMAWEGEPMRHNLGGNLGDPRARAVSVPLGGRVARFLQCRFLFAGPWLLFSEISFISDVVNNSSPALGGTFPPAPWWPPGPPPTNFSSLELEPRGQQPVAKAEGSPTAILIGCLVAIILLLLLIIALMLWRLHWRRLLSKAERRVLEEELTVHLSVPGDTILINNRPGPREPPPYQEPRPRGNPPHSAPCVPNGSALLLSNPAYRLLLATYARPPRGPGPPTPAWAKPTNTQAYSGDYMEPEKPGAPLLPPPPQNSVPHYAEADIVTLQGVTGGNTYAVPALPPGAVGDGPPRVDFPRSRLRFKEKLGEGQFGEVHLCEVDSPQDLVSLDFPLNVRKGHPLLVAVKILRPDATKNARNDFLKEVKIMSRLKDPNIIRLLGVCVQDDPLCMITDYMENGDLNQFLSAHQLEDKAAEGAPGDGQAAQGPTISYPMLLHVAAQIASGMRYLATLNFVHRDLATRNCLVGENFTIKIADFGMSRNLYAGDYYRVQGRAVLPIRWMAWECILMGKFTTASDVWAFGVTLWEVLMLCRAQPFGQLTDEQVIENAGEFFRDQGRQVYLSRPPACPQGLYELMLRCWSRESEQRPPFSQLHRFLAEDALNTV

PAK4 = PAK4 (Homo sapiens, UniProt O96013)
Chain of PAK4 (O96013 whole entry): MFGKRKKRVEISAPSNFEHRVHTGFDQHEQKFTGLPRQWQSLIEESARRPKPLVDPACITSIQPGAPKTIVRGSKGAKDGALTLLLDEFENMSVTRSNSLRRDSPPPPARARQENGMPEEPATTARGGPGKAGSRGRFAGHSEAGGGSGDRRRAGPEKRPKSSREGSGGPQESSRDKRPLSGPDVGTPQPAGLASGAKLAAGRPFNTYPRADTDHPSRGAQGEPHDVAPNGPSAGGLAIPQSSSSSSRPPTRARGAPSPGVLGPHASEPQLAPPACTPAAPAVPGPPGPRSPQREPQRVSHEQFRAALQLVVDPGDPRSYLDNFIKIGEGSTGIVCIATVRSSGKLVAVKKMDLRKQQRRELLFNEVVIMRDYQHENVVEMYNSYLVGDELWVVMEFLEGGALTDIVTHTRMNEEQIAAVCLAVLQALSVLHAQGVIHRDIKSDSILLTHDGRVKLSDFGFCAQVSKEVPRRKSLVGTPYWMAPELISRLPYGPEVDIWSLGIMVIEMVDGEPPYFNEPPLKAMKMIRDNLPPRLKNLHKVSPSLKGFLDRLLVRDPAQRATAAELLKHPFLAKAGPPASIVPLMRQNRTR

ADCK1 = biological target: T3, ADCK1 (Homo sapiens, UniProt Q86TW2)
T3 sequence (Q86TW2 1-530): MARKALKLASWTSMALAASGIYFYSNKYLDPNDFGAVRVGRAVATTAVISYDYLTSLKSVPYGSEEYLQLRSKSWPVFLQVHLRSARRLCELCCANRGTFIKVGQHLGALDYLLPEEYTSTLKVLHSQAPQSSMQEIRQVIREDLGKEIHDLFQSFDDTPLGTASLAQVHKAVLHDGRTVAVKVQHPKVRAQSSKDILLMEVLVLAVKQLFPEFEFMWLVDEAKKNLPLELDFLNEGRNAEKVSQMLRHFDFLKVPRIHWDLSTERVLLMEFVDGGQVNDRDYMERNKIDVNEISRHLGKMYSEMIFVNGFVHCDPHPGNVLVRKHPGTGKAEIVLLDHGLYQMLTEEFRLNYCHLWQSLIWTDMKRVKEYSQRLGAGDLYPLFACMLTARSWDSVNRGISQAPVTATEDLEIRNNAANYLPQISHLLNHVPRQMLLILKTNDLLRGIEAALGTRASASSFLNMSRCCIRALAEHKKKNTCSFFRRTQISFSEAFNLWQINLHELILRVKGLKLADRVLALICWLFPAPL

Chain of MAPK8 (P45983 whole entry): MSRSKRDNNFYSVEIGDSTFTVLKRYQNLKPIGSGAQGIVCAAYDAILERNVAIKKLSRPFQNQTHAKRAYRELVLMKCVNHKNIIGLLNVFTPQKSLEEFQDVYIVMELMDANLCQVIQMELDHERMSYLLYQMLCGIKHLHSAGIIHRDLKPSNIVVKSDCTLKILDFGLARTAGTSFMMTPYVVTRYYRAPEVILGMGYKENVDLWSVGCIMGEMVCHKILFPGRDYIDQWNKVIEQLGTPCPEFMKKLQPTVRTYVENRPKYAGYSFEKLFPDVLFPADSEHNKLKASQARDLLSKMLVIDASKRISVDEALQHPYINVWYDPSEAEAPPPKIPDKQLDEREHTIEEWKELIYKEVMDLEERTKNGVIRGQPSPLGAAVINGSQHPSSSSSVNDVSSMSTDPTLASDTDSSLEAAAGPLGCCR

| SMILES | IC50 (MAPK8) | IC50 (GAK) | IC50 (MASTL) | IC50 (DDR1) | IC50 (PAK4) | IC50 (ADCK1) |
| --- | --- | --- | --- | --- | --- | --- |
| CN(C)CC(O)COc1ccc(Nc2ncc([N+](=O)[O-])c(Nc3ccccc3O)n2)cc1.O=C(O)C(F)(F)F (stereo not drawn) [TCMDC-141399] | > 20000 nM | 1500 nM and 2300 nM | > 20000 nM | 11000 nM | 9000 nM and 6800 nM | 1800 nM |
| Cl.NCC1(c2nc(-c3ccc(Cl)c(O)c3)c(-c3ccncc3)[nH]2)CCCCC1 [TCMDC-141154] | > 20000 nM | > 20000 nM | > 20000 nM | 1800 nM | 9100 nM and > 20000 nM | > 20000 nM |
| CN1CCN(c2ccc(Nc3ncc(C#N)c(Nc4ccccc4C(N)=O)n3)cc2)CC1.Cl [TCMDC-134116] | 1500 nM and 5100 nM | 82 nM and 100 nM | 280 nM and 610 nM | 600 nM and 490 nM | 380 nM and 420 nM | 1000 nM |
